The values that follow come from patent US10227324B2 (Shanghai Haiyan Pharmaceutical Technology Co., Ltd., priority 2014, dated 2019).

The structures appear in SMILES notation. Like-named read-outs stand apart in the source and are kept apart here.

Assay [1] relates to NIH3T3 cells. Nature of the assay: Cytotoxicity by MTT assay, NIH3T3. The format is cell-based. Conditions: Mus musculus, NIH3T3, 72 h, cytotoxicity class, read-out: NIH3T3 cell (IC50/nM). The procedure: The MTT assay procedure and steps were carried out as well known to those skilled in the art, and all the reagents used in the methods were commercially available.
(§1) The cells in logarithmic growth phase were digested with 0.25% EDTA trypsin (Gibco, 25200-056) and resuspended in fresh medium. 90 μL of the cell suspension was inoculated into a 96-well cell culture plate (BD Faclon 353072) with a suitable cell density and cultured at 37° C. under 5% CO2. After the cells adhered, 10 μL of the test compound at different concentrations (0.0046-10 μM, 8 concentration points) was added and incubated for another 72 h. 10 μL of MTT (5 mg/mL PBS solution) (Sigma, M5655) was added to react for 4 h. The absorbance at 492 nm was measured by using Thermo Scientific Multiskan MK3 microplate reader and IC50 was calculated using XLFIT 5.0 software (UK IDBS).
(Tetrazolium dyes change colour on reduction, which living cells bring about.)

The test system of assay [2] is Akt phosphorylation (Ser473-p-Akt) in PC-3 cells. Nature of the assay: Inhibition of p-Akt phosphorylation level in PC-3 cells (cell level fluorescence imaging). The format is cell-based. Conditions: Homo sapiens; Akt phosphorylation in PC-3 cells, 2 hours incubation; read-out: PC-3 cell (IC50/nM). As for the experimental part:
This experiment was performed by cell level fluorescence image processing method.
Triton X-100: 10% aqueous Triton X-100 solution (Sigma T8787-100 mL) was prepared, stored at 4° C. and diluted by 1:100 to give 0.1% Triton X-100 aqueous solution for use in the experiment.
Prodium Iodide (PI): 1 mg/mL (1.5 mM) PI (Sigma P4170) storage solution was prepared with PBS and stored at −25° C. in the dark. For use, the PI storage solution was diluted with PBS by 1:1000 to give a 1.5 μM solution and used in dark.
PC-3 cells in logarithmic growth phase were digested with 0.25% EDTA trypsin. 3000 cells/90 μL were seeded in a 96-well plate (BD 356692) and cultured at 37° C. and 5% CO2. After the cells adhered, 10 μL of the compound to be tested which was gradiently diluted 3 times (0.0046 to 10 μM, 8 concentration points, in duplicate) was added and incubated for 2 hours, followed by addition of 100 μL of 4% paraformaldehyde (DINGGUO AR-0211) and incubated at room temperature for 45 minutes. Then 100 μL of 0.1% Triton X-100 solution was added and incubated for another 30 minutes.
Triton X-100 solution was removed and the cells were rinsed with 200 μl of PBS twice (300 rpm vibration for 1 minute). The blocking solution (1% BSA solution in PBS) (Genview FA016-100G) was added and incubated at room temperature for 2 hours. The plate was rinsed with PBS once (300 rpm, 1 min) and 30 μL of Ser473-p-Akt antibody (cell signaling 4060L) diluted with 0.1% BSA was added and incubated overnight at 4° C. Ser473-p-Akt antibody was removed and the plate was rinsed with PBS twice (300 rpm, 1 minute). 35 μL of Alexa Flour 488 donkey anti-rabbit IgG (Invitrogen A21206) was added and incubated at room temperature for 1.5 hours. The plate was rinsed with PBS twice (300 rpm, 1 minute) and 35 μL of 1.5 μM PI was added and incubated at room temperature for 0.5 h. The fluorescence intensity was measured with Acumen eX3 (TTP LabTech).
10 μM BEZ235 (Selleck S1009) treatment group was negative control and DMSO treatment group was positive control. Inhibition ratio %=[1−(the mean value of the fluorescence intensity of the compound to be tested−the mean value of the fluorescence intensity of the negative control group)/(the mean value of the fluorescence intensity of the positive control group−the mean value of the fluorescence intensity of the negative control group)]×100%

Assay [3] addresses T1, PI3K-α kinase (p110α/p85α) (Homo sapiens, UniProt P42336).
T1 construct: purchased Invitrogen PV4788
Briefly: Determination of PI3K kinase activity (ADP Transcreener, fluorescence polarization). The format is biochemical. Conditions: ATP 10 μM. As for the experimental part: (§2) The inhibition of PI3K kinase activity by the compound to be tested was determined by the following method. The working concentration of each component in the 25 μL enzyme reaction system was: p110α/p85α 3 ng (or p110β/p85α 60 ng, or p110δ/p85α 90 ng, or p110γ 100 ng), ATP 10 μM, PIP2: PS (Invitrogen PV5100) 30 μM and the DMSO concentration was 2% after addition of the compound to be tested.
(§3) At the time of the test, the compound to be tested was dissolved in dimethylsulfoxide (DMSO) according to the desired concentration of the experiment. The compound to be tested was gradiently diluted 3 times (0.00046-1 μM, 8 concentration points) with 10% DMSO. 5 μL of the compound to be tested was added to each well of a 96-well plate (Greiner 675076) in duplicate. […] 10 μL of ATP/PIP2: PS and 10 μL of the PI3K enzyme working solution were added to each well in a 96-well plate. The plate was shaken and mixed uniformly, and then incubated at 25° C. for 1 hour. At the same time, ADP and ATP (0.01 μM, 0.02 μM, 0.04 μM, 0.06 μM, 0.08 μM[…], 0.1 μM, 0.25 μM, 0.5 μM, 1 μM, 2 μM, 5 μM, 10 μM, 12 concentration points) were diluted with buffer to set the standard curve. After completion of the enzyme reaction, 25 μL of ADP assay solution (1% 100×ADP tracer, 0.79% ADP antibody and 10% 10× reaction stop solution) was added and incubated at 25° C. for 1 hour. Fluorescence polarization value [mP] of each well was measured with a Perkin Elmer Victor X5 Fluorescent Microplate. The ADP concentration [ADP] was calculated from the ADP/ATP standard curve and the IC50 values were calculated using the XLFit software.
On the technique in general: In fluorescence polarisation assays a small probe gives low polarisation when free and higher when bound to something large.

In assay [4] the target is T2, PI3K-β kinase (p110β/p85α) (Homo sapiens, UniProt P42338).
T2 construct: purchased Millipore 14-603
T2 sequence (P42338 whole entry): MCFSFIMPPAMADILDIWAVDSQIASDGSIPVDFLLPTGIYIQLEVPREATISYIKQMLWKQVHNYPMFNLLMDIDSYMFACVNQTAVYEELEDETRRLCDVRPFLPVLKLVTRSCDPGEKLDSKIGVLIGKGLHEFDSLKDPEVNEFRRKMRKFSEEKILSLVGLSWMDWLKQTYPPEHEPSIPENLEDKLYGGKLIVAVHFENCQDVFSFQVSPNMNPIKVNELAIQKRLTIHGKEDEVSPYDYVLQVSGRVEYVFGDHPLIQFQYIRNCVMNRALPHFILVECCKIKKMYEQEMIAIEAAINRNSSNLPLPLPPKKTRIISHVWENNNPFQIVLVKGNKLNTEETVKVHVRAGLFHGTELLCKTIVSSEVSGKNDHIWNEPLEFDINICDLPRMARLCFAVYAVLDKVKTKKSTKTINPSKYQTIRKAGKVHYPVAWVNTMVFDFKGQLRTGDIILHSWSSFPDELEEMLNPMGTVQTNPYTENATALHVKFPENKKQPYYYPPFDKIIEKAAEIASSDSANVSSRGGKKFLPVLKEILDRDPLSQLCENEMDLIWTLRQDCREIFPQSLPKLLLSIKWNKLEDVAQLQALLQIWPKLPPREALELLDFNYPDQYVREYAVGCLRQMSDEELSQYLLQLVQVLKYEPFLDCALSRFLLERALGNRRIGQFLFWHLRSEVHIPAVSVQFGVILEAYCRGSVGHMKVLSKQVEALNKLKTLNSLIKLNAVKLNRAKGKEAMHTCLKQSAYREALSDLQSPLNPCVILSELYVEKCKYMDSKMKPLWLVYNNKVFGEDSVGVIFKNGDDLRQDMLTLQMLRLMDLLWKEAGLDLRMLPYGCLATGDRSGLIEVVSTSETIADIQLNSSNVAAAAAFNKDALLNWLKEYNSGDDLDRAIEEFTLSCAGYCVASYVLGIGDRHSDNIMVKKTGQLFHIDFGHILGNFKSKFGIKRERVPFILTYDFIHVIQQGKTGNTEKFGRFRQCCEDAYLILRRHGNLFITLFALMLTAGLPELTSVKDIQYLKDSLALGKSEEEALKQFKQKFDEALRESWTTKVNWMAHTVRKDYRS
T2 sequence (P27986 whole entry partner): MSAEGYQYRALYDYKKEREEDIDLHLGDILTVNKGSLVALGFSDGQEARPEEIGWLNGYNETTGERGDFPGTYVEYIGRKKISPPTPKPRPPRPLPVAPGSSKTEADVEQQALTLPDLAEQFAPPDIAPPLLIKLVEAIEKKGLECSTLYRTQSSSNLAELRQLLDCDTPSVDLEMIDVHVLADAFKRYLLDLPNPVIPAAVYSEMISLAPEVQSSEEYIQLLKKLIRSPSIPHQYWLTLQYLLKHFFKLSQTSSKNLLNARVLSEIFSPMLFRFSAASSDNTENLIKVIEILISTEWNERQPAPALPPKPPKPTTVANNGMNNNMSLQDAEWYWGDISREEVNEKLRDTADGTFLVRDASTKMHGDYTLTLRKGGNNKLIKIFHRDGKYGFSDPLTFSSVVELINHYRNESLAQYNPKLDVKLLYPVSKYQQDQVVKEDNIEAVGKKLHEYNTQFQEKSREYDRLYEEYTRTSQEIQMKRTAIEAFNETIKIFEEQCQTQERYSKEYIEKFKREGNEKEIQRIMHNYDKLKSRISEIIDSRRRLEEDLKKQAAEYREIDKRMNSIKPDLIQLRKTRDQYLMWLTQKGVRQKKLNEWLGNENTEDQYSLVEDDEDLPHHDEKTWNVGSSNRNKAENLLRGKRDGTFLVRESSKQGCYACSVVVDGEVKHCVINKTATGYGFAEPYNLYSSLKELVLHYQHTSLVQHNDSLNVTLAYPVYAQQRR
The assay is described as above. The note with it: Table 1; ATP 10 μM; read-out: PI3K-β/nM (IC50 of inhibitory activity against PI3K kinase). The format is biochemical. As for the experimental part:
as §2, §3

The target of assay [5] is T3, PI3K-δ kinase (p110δ/p85α) (Homo sapiens, UniProt O00329).
T3 construct: purchased Millipore 14-604M
T3 sequence (O00329 whole entry): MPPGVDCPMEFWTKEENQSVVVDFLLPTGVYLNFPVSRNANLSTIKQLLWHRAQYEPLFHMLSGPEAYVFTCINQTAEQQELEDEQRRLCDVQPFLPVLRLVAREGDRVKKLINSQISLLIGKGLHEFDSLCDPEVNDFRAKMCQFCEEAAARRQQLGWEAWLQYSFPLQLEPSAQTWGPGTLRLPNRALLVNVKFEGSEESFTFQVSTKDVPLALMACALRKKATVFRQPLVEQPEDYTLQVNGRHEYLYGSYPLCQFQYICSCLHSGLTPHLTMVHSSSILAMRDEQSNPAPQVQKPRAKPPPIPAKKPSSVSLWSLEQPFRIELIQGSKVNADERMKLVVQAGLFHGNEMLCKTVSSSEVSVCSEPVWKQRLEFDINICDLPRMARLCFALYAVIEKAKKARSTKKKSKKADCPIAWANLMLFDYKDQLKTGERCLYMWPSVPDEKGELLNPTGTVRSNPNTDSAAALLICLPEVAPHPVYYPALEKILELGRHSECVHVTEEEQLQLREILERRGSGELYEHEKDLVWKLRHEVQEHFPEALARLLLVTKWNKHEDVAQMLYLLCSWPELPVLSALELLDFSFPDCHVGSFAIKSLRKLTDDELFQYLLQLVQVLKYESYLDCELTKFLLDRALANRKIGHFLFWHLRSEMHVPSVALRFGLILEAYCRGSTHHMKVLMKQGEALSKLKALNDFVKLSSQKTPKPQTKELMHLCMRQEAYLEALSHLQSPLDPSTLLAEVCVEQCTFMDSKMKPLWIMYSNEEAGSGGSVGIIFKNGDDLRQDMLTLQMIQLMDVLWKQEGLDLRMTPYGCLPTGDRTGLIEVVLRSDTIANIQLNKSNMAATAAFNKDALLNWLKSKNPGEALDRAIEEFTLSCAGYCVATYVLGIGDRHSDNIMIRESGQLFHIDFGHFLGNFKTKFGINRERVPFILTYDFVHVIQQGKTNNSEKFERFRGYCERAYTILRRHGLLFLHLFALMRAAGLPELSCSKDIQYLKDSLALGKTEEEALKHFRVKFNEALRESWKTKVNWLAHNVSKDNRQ
T3 sequence (P27986 whole entry partner): as the sequence (P27986 whole entry partner) above
Described as above. The format is biochemical. Conditions: Table 1; ATP 10 μM; read-out: PI3K-δ/nM (IC50 of inhibitory activity against PI3K kinase). As for the experimental part:
as §2, §3

Assay [6] addresses T4, PI3K-γ kinase (p110γ) (Homo sapiens, UniProt P48736).
T4 construct: purchased Invitrogen PV4786
The description is as above. The note with it: Table 1; ATP 10 μM; read-out: PI3K-γ/nM (IC50 of inhibitory activity against PI3K kinase). The format is biochemical. The procedure: The PI3K kinase used in the experiment: p110α/p85α (Invitrogen PV4788), p110β/p85α (Millipore 14-603), p110δ/p85α (Millipore 14-604M), and p110γ (Invitrogen PV4786).
as §2
as §3, with “duplicate. 2.5× buffer was prepared and 1 μL of DTT (Millipore 20-265) was added to each 800 μL of 2.5× buffer.” for “duplicate.”

For assay [7], the system named is T47D cells. Nature of the assay: Cell inhibitory activity detected by MTT assay, T47D. In kind it is cell-based. Conditions: Homo sapiens, T47D, 72 h, read-out: T47D cell (IC50/nM), cell growth inhibition. The procedure:
as §1, with “The MTT assay procedure and steps were carried out as well known to those skilled in the art, and all the reagents used in the methods were commercially available. The cells” for “The cells”, “(UK IDBS). T47D cell culture medium: RPMI-1640 medium (Hyclone SH30809.01B)+10% FBS (Gibco 10099-141)” for “(UK IDBS).”

In assay [8] the test system is MCF-7 cells. Briefly: Cell inhibitory activity detected by MTT assay, MCF-7. The format is cell-based. The note with it: Homo sapiens, MCF7, 72 h, read-out: MCF-7 cell (IC50/nM), cell growth inhibition. The procedure:
as §1, with “The MTT assay procedure and steps were carried out as well known to those skilled in the art, and all the reagents used in the methods were commercially available. The cells” for “The cells”, “(UK IDBS). MCF-7 cell culture medium: DMEM medium (Hyclone SH30243.01B+10% FBS (Gibco 10099-141)” for “(UK IDBS).”

Setting [9] is: Table 1, read-out: PI3K-α/nM (IC50 of inhibitory activity against PI3K kinase).
[10] abbreviates: Table 2, read-out: PI3K-α/nM (IC50 of inhibitory activity against PI3K-α kinase).

T1 sequence (P42336 whole entry): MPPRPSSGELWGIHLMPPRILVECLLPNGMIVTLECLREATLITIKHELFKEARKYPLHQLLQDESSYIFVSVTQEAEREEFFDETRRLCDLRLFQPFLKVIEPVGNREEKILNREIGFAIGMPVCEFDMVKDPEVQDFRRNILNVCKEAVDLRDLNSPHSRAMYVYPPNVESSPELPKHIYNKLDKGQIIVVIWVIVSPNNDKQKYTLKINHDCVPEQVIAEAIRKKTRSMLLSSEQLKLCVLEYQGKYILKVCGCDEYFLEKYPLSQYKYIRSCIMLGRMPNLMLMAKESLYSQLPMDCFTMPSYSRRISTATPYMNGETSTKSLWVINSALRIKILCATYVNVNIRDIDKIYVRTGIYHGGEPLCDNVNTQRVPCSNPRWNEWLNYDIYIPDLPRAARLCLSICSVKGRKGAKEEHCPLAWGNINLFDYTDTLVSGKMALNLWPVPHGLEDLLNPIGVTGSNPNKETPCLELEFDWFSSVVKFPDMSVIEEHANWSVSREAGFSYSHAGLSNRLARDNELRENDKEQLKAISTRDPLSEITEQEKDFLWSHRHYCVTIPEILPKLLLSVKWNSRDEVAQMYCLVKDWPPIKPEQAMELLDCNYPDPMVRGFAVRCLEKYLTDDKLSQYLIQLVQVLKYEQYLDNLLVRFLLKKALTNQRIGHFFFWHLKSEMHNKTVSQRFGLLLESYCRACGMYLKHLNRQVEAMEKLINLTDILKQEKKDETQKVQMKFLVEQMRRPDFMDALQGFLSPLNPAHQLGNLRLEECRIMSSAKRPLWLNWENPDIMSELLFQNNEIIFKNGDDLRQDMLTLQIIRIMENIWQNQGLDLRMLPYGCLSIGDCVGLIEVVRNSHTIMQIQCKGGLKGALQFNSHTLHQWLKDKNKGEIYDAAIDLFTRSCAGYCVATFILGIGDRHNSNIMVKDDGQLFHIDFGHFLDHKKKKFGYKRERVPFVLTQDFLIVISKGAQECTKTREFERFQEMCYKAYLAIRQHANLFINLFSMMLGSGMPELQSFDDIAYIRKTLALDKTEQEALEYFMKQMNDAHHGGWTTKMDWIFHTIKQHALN
T1 sequence (P27986 whole entry partner): as the sequence (P27986 whole entry partner) above
T4 sequence (P48736 whole entry): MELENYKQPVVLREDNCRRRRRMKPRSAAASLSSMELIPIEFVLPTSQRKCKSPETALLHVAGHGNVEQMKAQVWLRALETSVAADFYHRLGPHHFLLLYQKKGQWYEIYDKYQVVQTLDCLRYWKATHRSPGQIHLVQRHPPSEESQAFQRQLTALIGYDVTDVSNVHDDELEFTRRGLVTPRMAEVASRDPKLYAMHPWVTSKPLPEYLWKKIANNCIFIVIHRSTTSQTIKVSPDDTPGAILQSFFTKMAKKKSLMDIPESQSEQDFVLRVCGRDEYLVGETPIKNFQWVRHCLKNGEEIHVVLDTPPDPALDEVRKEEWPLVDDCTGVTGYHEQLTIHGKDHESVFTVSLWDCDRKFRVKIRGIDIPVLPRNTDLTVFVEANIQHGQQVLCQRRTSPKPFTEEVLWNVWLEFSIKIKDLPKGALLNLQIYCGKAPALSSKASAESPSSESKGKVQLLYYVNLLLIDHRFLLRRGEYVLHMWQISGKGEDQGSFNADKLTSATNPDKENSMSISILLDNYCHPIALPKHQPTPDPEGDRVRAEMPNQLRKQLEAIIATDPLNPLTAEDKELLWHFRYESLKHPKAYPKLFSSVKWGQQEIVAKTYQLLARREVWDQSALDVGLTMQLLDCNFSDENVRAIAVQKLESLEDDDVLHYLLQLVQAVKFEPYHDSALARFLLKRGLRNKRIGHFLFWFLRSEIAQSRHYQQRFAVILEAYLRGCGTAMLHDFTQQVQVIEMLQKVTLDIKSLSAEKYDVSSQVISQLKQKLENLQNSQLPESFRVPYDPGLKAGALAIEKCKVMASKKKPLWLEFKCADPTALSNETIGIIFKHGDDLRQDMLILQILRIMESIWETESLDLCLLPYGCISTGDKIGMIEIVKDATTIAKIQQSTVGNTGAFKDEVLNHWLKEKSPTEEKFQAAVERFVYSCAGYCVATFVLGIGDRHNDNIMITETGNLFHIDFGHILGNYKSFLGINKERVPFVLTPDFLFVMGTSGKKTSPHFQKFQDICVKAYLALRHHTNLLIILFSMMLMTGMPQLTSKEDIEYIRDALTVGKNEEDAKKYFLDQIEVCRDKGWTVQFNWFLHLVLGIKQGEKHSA

In the case of `C[C@@H]1COCCN1c1nc(-c2cnc(N)cc2C(F)(F)F)cc(C2(S(C)(=O)=O)CC2)n1` [Compound S-5], the IC50 in assay [1] fell in the range of 1000 to 3000 nM.

Consider `Nc1cc(C(F)(F)F)c(-c2cc(N3CCOCC3)nc(N3CCOCC3)n2)cn1` [BKM-120, reference compound], for which, in assay [2], the IC50 worked out at 596 nM.

In the case of `CC(C)(O)c1cc(-c2cnc(N)nc2C(F)(F)F)nc(N2CCOCC2)n1` [Compound S-64], the IC50 in assay [3] (setting [9]) is 13 nM; in assay [4], 27 nM; in assay [5] it was 19 nM; in assay [6], 431 nM; in assay [2] it was 330 nM.

Consider `Nc1cc(Cl)c(-c2cc(C3(S(=O)(=O)C4CC4)CC3)nc(N3CCOCC3)n2)cn1` [Compound S-87], for which the IC50 amounted to 14 nM in assay [3] (setting [9]); 14 nM in assay [3] (setting [10]); 386 nM in assay [4]; 117 nM in assay [5]; 134 nM in assay [6]; 101 nM in assay [7]. Moreover, the IC50 in assay [8] is 170 nM.

With `Nc1cc(C(F)(F)F)c(-c2cc(C3(CN4CCOCC4)CC3)nc(N3CCOCC3)n2)cn1` [Compound S-8, 5-(2-morpholino-6-(1-(morpholinomethyl)cyclopropyl)pyrimidin-4-yl)-4-(trifluoromethyl)pyridin-2-amine], the IC50 in assay [1] is > 10000 nM.

With `Nc1cc(C(F)(F)F)c(-c2cc(C3(S(=O)(=O)c4ccccc4Cl)CC3)nc(N3CCOCC3)n2)cn1` [Compound S-78], the IC50 in assay [3] (setting [9]) was found to be 7 nM; in assay [3] (setting [10]), 7 nM; in assay [4] it was 419 nM; in assay [5] it was 85 nM; in assay [6], 925 nM; in assay [7], 206 nM. For the same molecule, the IC50 in assay [8] came out at 318 nM.

Turning to `CS(=O)(=O)C1(c2cc(-c3cnc(N)cc3C(F)(F)F)nc(N3CCOCC3)c2)CC1` [Comparative compound 1, 4-(1-(methylsulfonyl)cyclopropyl)-6-morpholino-4′-(trifluoromethyl)-2,3′bipyridyl-6′-amine, reference compound], the values for the IC50 in assay [2], in assay [7] and in assay [8] were 2260 nM, 1220 nM and 996 nM, respectively.

With `CC(C)(O)c1cc(-c2cnc(N)cc2Cl)nc(N2CCOCC2)n1` [Compound S-63], the IC50 in assay [3] (setting [9]) turned out to be 21 nM; in assay [4], 228 nM; in assay [5], 158 nM; in assay [6], 428 nM; in assay [2], 577 nM; in assay [8], 240 nM.

On to `CS(=O)(=O)C1(c2cc(-c3ccc(N)nc3)nc(N3CCOCC3)n2)CC1` [Compound S-40], for which the IC50 came out at 92 nM in assay [3] (setting [10]), 465 nM in assay [2] and 355 nM in assay [8].

Regarding `CC(C)(c1cc(-c2ccc(N)nc2)nc(N2CCOCC2)n1)S(C)(=O)=O` [Compound S-39], the IC50 was 513 nM in assay [2] and 441 nM in assay [8].
